Read-outs that look alike come from different tables or passages of the source.
What was measured:
[1] = Back of the eye drug exposure (PK) after topical instillation of compound MPP; format: in vivo; conditions: rabbit, topical or ocular, 50 μL of 0.5% MPP formulation, MPP 0.5%, 50 μL topical BID 5 days, Dutch-belted rabbits, 8 mm punch
From the text: Dutch-belted rabbits were used in these studies.
The portion of the retina and choroid collected and analyzed was an 8 mm round punch where the macula is located in humans.

[2] = Mobility of MPP nanoparticles in human cervicovaginal mucus (dark field microscopy); conditions: low pH of human cervicovaginal mucus
Experimental: In order to determine whether the generated nanoparticles have reduced interactions with mucins and are therefore able to move within mucus without becoming trapped, particles were incubated with human cervicovaginal mucus (CVM) and observed via dark field microscopy. In a typical experiment, […] of the nanoparticle suspension was added to 20 μl of CVM. Observations were made in a minimum of three distinct and randomly selected areas of the CVM sample. Control particles with known behavior were used to qualify the CVM sample as appropriate for the assay. For all compounds (except compound 55) listed in Table 4, mobility in mucus was observed and therefore the nanoparticles were deemed to be effective MPP.

[3] = choroid, read-out: AUC0-last Choroid
[4] = choroid, read-out: Cmax Choroid
[5] = retina, read-out: AUC0-last Retina

Row | AUC(0-t) [1, 3] [µM·h] | Cmax [1, 4] [nM] | AUC(0-t) [1, 5] [µM·h] | Cmax ([1]; retina, read-out: Cmax Retina) [nM] | solubility in CVM [2] | Compound
1 | 5.4 | 693 | 0.915 | 110 | – | COc1cc2c(Oc3ccc(NC(=O)Nc4cc(C)on4)c(Cl)c3)ncnc2cc1OCCCN1CCC2(CC1)COC2 [Compound 9]
2 | 2.45 | 265 | 0.308 | 39 | – | COc1cc2c(Oc3ccc(NC(=O)Nc4cc(C)ccc4F)c(Cl)c3)ncnc2cc1OCCCN1CCC2(CC1)COC2 [Compound 12]
3 | 5.79 | 574 | 0.297 | 33 | – | COc1cc2c(Oc3ccc(NC(=O)Nc4cc(C)ccc4F)c(Cl)c3)ccnc2cc1OCCCN1CCC2(CC1)COC2 [Compound 25]
4 | – | – | – | – | soluble in the low pH of CVM | COc1cc2ncnc(Oc3ccc(NC(=O)Nc4ccc(CN5CCN(C)CC5)cc4)c(Cl)c3)c2cc1OC [Compound 55]

— patent US10398703B2, “Therapeutic compounds and uses thereof” (Kala Pharmaceuticals, Inc., priority 2013, dated 2019)
